{
  "source": "patent US8153819B2",
  "about": "“Fungicidal mixtures comprising substituted 1-methylpyrazol-4-ylcarboxanilides” (BASF SE, priority 2005, dated 2012)",
  "key": {"Puccinia recondita": {"system": "Puccinia recondita", "assay": "Curative activity against brown rust of wheat caused by Puccinia recondita", "type": "in vivo", "conditions": "curative spray 1 day after inoculation, read after 7 days", "procedure": "(§1) The active compounds, separately or jointly, were prepared as a stock solution comprising 25 mg of active compound which was made up to 10 ml using a mixture of acetone and/or dimethyl sulfoxide and the emulsifier Uniperol® EL (wetting agent having an emulsifying and dispersing action based on ethoxylated alkylphenols) in a ratio by volume of solvent/emulsifier of 99:1. The mixture was then made up to 100 ml with water. This stock solution was diluted with the solvent/emulsifier/water mixture described to give the concentration of active compound stated below.\n(§2) As an alternative, the active compounds epoxiconazole, triticonazole and pyraclostrobin were used as commercially available ready-to-use formulation and diluted to the specified active compound concentration with water.\n(§3) The visually determined percentages of infected leaf areas were converted into efficacies in % of the untreated control:\n(§4) The efficacy (E) is calculated as follows using Abbot's formula: E=(1−α/β)·100 α corresponds to the fungicidal infection of the treated plants in % and β corresponds to the fungicidal infection of the untreated (control) plants in %\n(§5) An efficacy of 0 means that the infection level of the treated plants corresponds to that of the untreated control plants; an efficacy of 100 means that the treated plants are not infected.\n(§6) The expected efficacies of active compound combinations were determined using Colby's formula (Colby, S. R. “Calculating synergistic and antagonistic responses of herbicide combinations”, Weeds, 15, 20-22, 1967) and compared with the observed efficacies.\n(§7) Colby's formula: E=x+y−x·y/100 • E expected efficacy, expressed in % of the untreated control, when using the mixture of the active compounds A and B at the concentrations a and b; • x efficacy, expressed in % of the untreated control, when using the active compound A at the concentration a; • y efficacy, expressed in % of the untreated control, when using the active compound B at the concentration b.\nLeaves of potted wheat seedlings of the cultivar “Kanzler” were inoculated with a spore suspension of brown rust (Puccinia recondita). The pots were then placed in a chamber with high atmospheric humidity (90 to 95%) and 20 to 22° C. for 24 hours. During this time, the spores germinated and the germ tubes penetrated into the leaf tissue. The next day, the infected plants were sprayed to runoff point with the above-described active compound solution having the active compound concentration stated below. After the spray coating had dried on, the test plants were cultivated in a greenhouse at temperatures between 20 and 22° C. and 65 to 70% relative atmospheric humidity for 7 days. The extent of the rust fungal development on the leaves was then determined."}, "Alternaria solani": {"system": "Alternaria solani", "assay": "Activity against early blight of tomato caused by Alternaria solani (protective spray)", "type": "in vivo", "conditions": "tomato leaves sprayed 1 day before infection, read after 5 days, efficacy in % of untreated control (Abbot)", "procedure": "as §1, §2, §3, §4, §5\n(§8) The expected efficacies of active compound combinations were determined using Colby's formula (Colby, S. R. “Calculating synergistic and antagonistic responses of herbicide combinations”, Weeds, 15, 20-22, 1967) and compared with the observed efficacies. […]\nLeaves of potted tomato plants were sprayed to runoff point with an aqueous suspension having the active compound concentration stated below. […] After 5 days, the disease on the untreated but infected control plants had developed to such an extent that the infection could be determined visually in %."}, "Botrytis cinerea": {"system": "Botrytis cinerea", "assay": "Activity against gray mold on bell pepper leaves caused by Botrytis cinerea, 1 day protective application", "type": "in vivo", "conditions": "1 day protective spray, read after 5 days", "procedure": "as §1, §2, §3, §4, §5, §6, §7\nBell pepper seedlings of the cultivar “Neusiedler Ideal Elite” were, after 2-3 leaves were well developed, sprayed to runoff point with an aqueous suspension in the active compound concentration specified below. The next day, the treated plants were inoculated with a spore suspension of Botrytis cinerea which contained 1.7×10^6 spores/ml in a 2% strength aqueous biomalt solution. The test plants were then placed in a climatized chamber at 22 to 24° C., darkness and high atmospheric humidity. After 5 days, the extent of the fungal infection on the leaves could be determined visually in %."}, "[1]": {"system": "Pyrenophora [syn. Drechslera] teres", "assay": "Activity against net blotch of barley caused by Pyrenophora teres, 1 day protective application", "type": "in vivo", "conditions": "barley seedlings sprayed 24 h before inoculation, read after 6 days, efficacy in % of untreated control (Abbot)", "procedure": "as §1, §2, §3\nThe efficacy (E) is calculated as follows using Abbot's formula: E=(1−α/β)·100 α corresponds to the fungicidal infection of the treated plants in % and β corresponds to the fungicidal infection of the untreated (control) plants in % […]\nas §8"}},
  "data": [
    {"molecule": "N#Cc1c(Cl)c(Cl)c(Cl)c(C#N)c1Cl", "note": "[chlorthalonil, 2,4,5,6-tetrachloroisophthalonitrile, reference compound]", "values": [
      {"measurement": "Observed activity (% infection)", "setting": "Puccinia recondita; 16 mg/l", "result": 0, "unit": "%"},
      {"measurement": "Observed activity (% infection)", "setting": "Alternaria solani; 63 mg/l", "result": 0, "unit": "%"}
    ]},
    {"molecule": "COc1ccc(C(=CC(=O)N2CCOCC2)c2ccc(Cl)cc2)cc1OC", "note": "[dimethomorph]", "values": [
      {"measurement": "Observed activity (% infection)", "setting": "Botrytis cinerea; 4 mg/l", "result": 0, "unit": "%"},
      {"measurement": "Observed activity (% infection)", "setting": "Botrytis cinerea; 16 mg/l", "result": 0, "unit": "%"},
      {"measurement": "Observed activity (% infection)", "setting": "Botrytis cinerea; 63 mg/l", "result": 0, "unit": "%"}
    ]},
    {"molecule": "zinc ammoniate ethylenebis(dithiocarbamate) [metiram, reference compound]", "values": [
      {"measurement": "Observed activity (% infection)", "setting": "Botrytis cinerea; 16 mg/l", "result": 0, "unit": "%"},
      {"measurement": "Observed activity (% infection)", "setting": "Alternaria solani; 63 mg/l", "result": 0, "unit": "%"}
    ]},
    {"molecule": "Fc1ccc([C@]2(Cn3cncn3)O[C@H]2c2ccccc2Cl)cc1", "note": "(racemic) [epoxiconazole, (2RS,3SR)-1-[3-(2-chlorophenyl)-2,3-epoxy-2-(4-fluorophenyl)propyl]-1H-1,2,4-triazole, reference compound]", "values": [
      {"measurement": "Observed activity (% infection)", "setting": "[1]; 0.063 mg/l", "result": 0, "unit": "%"},
      {"measurement": "Observed activity (% infection)", "setting": "Puccinia recondita; 0.063 mg/l", "result": 0, "unit": "%"}
    ]},
    {"molecule": "Cn1nc(Cl)c(C(=O)Nc2ccccc2-c2cc(F)c(F)c(F)c2)c1CF", "note": "[No. Ij. 344, N-(3′,4′,5′-trifluorobiphenyl-2-yl)-3-chlorofluoromethyl-1-methyl-1H-pyrazole-4-carboxamide]", "values": [
      {"measurement": "melting point", "result": "154 to 157", "unit": "°C"}
    ]},
    {"molecule": "Cn1nc(Cl)c(C(=O)Nc2ccccc2-c2cc(F)c(F)c(F)c2)c1C(F)F", "note": "[No. Ih. 344, N-(3′,4′,5′-trifluorobiphenyl-2-yl)-3-chlorodifluoromethyl-1-methyl-1H-pyrazole-4-carboxamide]", "values": [
      {"measurement": "melting point", "result": "158 to 161", "unit": "°C"}
    ]},
    {"molecule": "Cn1cc(C(=O)Nc2ccccc2-c2cc(F)c(F)c(F)c2)c(CF)n1", "note": "[No. Ig. 344, N-(3′,4′,5′-trifluorobiphenyl-2-yl)-3-fluoromethyl-1-methyl-1H-pyrazole-4-carboxamide]", "values": [
      {"measurement": "melting point", "result": "152 to 156", "unit": "°C"}
    ]},
    {"molecule": "CC1CCN(c2c(-c3c(F)cc(F)cc3F)c(Cl)nc3ncnn23)CC1", "note": "[5-chloro-7-(4-methyl-piperidin-1-yl)-6-(2,4,6-trifluorophenyl)-[1,2,4]tri-azolo[1,5-a]pyrimidine]", "values": [
      {"measurement": "Observed activity (% infection)", "setting": "Puccinia recondita; 4 mg/l", "result": 40, "unit": "%"}
    ]},
    {"molecule": "COC(=O)N(OC)c1ccccc1COc1ccn(-c2ccc(Cl)cc2)n1", "note": "[pyraclostrobin, methyl N-{2-[1-(4-chlorophenyl)-1H-pyrazol-3-yloxymethyl]phenyl}(N-methoxy)carbamate, reference compound]", "values": [
      {"measurement": "Observed activity (% infection)", "setting": "Puccinia recondita; 1 mg/l", "result": 0, "unit": "%"},
      {"measurement": "Observed activity (% infection)", "setting": "Alternaria solani; 4 mg/l", "result": 50, "unit": "%"}
    ]},
    {"molecule": "Cn1cc(C(=O)Nc2ccccc2-c2cc(F)c(F)c(F)c2)c(C(F)F)n1", "note": "[No. Id.344, N-(3′,4′,5′-trifluorobiphenyl-2-yl)-3-difluoromethyl-1-methyl-1H-pyrazole-4-carboxamide]", "values": [
      {"measurement": "Observed activity (% infection)", "setting": "Botrytis cinerea; 1 mg/l", "result": 40, "unit": "%"},
      {"measurement": "Observed activity (% infection)", "setting": "[1]; 0.25 mg/l", "result": 67, "unit": "%"},
      {"measurement": "Observed activity (% infection)", "setting": "Puccinia recondita; 1 mg/l", "result": 0, "unit": "%"}
    ]},
    {"molecule": "CC1(C)CCC(=Cc2ccc(Cl)cc2)C1(O)Cn1cncn1", "note": "(centres unmarked) [triticonazole]", "values": [
      {"measurement": "Observed activity (% infection)", "setting": "Botrytis cinerea; 4 mg/l", "result": 0, "unit": "%"},
      {"measurement": "Observed activity (% infection)", "setting": "Puccinia recondita; 1 mg/l", "result": 0, "unit": "%"}
    ]},
    {"molecule": "COc1cc(C)c(C(=O)c2c(OC)ccc(Br)c2C)c(OC)c1OC", "note": "[metrafenone]", "values": [
      {"measurement": "Observed activity (% infection)", "setting": "Botrytis cinerea; 4 mg/l", "result": 0, "unit": "%"},
      {"measurement": "Observed activity (% infection)", "setting": "Botrytis cinerea; 16 mg/l", "result": 0, "unit": "%"},
      {"measurement": "Observed activity (% infection)", "setting": "Botrytis cinerea; 63 mg/l", "result": 0, "unit": "%"}
    ]}
  ]
}
